ChEMBL document CHEMBL1131575, “[125I/127I/131I]Iodorhodamine: synthesis, cellular localization, and biodistribution in athymic mice bearing human tumor xenografts and comparison with [99mTc]hexakis(2-methoxyisobutylisonitrile)” (J Med Chem, 1998)

How the values were obtained:
[1] = test system: Mus musculus; assay: Biodistribution in athymic mice bearing Human Tumor (TE671) Xenografts 1 hour after injection in Lung (L); format: ADME, organism-based; conditions: in vivo
[2] = (§1) Ratio of biodistributions in Athymic mice bearing human Tumor (LS174T) xenografts in Tumor (T) and blood (B); format: ADME, organism-based; conditions: mouse, read-out: Biodistribution ratio
[3] = test system: Mus musculus; assay: Biodistribution in athymic mice bearing Human Tumor (TE671) Xenografts 1 hour after injection in Heart (H); format: ADME, organism-based; conditions: in vivo
[4] = test system: Homo sapiens; assay: Biodistribution in athymic mice bearing Human Tumor (KB) Xenografts 1 hour after injection in Tumor (T) cells; format: ADME, organism-based; conditions: in vivo
[5] = test system: Mus musculus; assay: Biodistribution in athymic mice bearing Human Tumor (LS174T) Xenografts 1 hour after injection in Lung (L); format: ADME, organism-based; conditions: in vivo
[6] = test system: Mus musculus; assay: Biodistribution in athymic mice bearing Human Tumor (LS174T) Xenografts 1 hour after injection in Tumor (T) cells; format: ADME, organism-based; conditions: in vivo
[7] = test system: Mus musculus; assay: Ratio of biodistributions in Athymic mice bearing human Tumor (TE671) xenografts in Heart (H) and Lung (L); format: ADME, organism-based; conditions: in vivo
[8] = test system: Mus musculus; assay: Ratio of biodistributions in Athymic mice bearing human Tumor (KB) xenografts in Heart (H) and Lung (L); format: ADME, organism-based; conditions: in vivo
[9] = test system: Mus musculus; assay: Ratio of biodistributions in Athymic mice bearing human Tumor (KB) xenografts in Tumor (T) and Muscle (M); format: ADME, organism-based; conditions: in vivo
[10] = test system: Mus musculus; assay: Biodistribution in athymic mice bearing Human Tumor (TE671) Xenografts 1 hour after injection in Blood (B); format: ADME, organism-based; conditions: in vivo
[11] = test system: Mus musculus; assay: Biodistribution in athymic mice bearing Human Tumor (KB) Xenografts 1 hour after injection in Blood (B); format: ADME, organism-based; conditions: in vivo
[12] = (§2) Ratio of biodistributions in Athymic mice bearing human Tumor (KB) xenografts in Heart (H) and Blood (B); format: ADME, organism-based; conditions: mouse, read-out: Biodistribution ratio
[13] = test system: Mus musculus; assay: Biodistribution in athymic mice bearing Human Tumor (LS174T) Xenografts 1 hour after injection in Blood (B); format: ADME, organism-based; conditions: in vivo
[14] = (§3) Ratio of biodistributions in Athymic mice bearing human Tumor (TE671) xenografts in Tumor (T) and blood (B); format: ADME, organism-based; conditions: mouse, read-out: Biodistribution ratio
[15] = (§4) Ratio of biodistributions in Athymic mice bearing human Tumor (LS174T) xenografts in Heart (H) and Blood (B); format: ADME, organism-based; conditions: mouse, read-out: Biodistribution ratio
[16] = test system: Homo sapiens; assay: Biodistribution in athymic mice bearing Human Tumor (TE671) Xenografts 1 hour after injection in Tumor (T) cells; format: ADME, organism-based; conditions: in vivo
[17] = test system: Mus musculus; assay: Biodistribution in athymic mice bearing Human Tumor (LS174T) Xenografts 1 hour after injection in Muscle (M); format: ADME, organism-based; conditions: in vivo
[18] = test system: Mus musculus; assay: Biodistribution in athymic mice bearing Human Tumor (KB) Xenografts 1 hour after injection in Muscle (M); format: ADME, organism-based; conditions: in vivo
[19] = test system: Mus musculus; assay: Biodistribution in athymic mice bearing Human Tumor (KB) Xenografts 1 hour after injection in Heart (H); format: ADME, organism-based; conditions: in vivo
[20] = test system: Mus musculus; assay: Biodistribution in athymic mice bearing Human Tumor (TE671) Xenografts 1 hour after injection in Muscle (M); format: ADME, organism-based; conditions: in vivo
[21] = test system: Mus musculus; assay: Ratio of biodistributions in Athymic mice bearing human Tumor (LS174T) xenografts in Tumor (T) and Muscle (M); format: ADME, organism-based; conditions: in vivo
[22] = test system: Mus musculus; assay: Ratio of biodistributions in Athymic mice bearing human Tumor (LS174T) xenografts in Heart (H) and Lung (L); format: ADME, organism-based; conditions: in vivo
[23] = (§5) Ratio of biodistributions in Athymic mice bearing human Tumor (KB) xenografts in Tumor (T) and blood (B); format: ADME, organism-based; conditions: mouse, read-out: Biodistribution ratio
[24] = test system: Mus musculus; assay: Ratio of biodistributions in Athymic mice bearing human Tumor (TE671) xenografts in Tumor (T) and Muscle (M); format: ADME, organism-based; conditions: in vivo
[25] = test system: Mus musculus; assay: Biodistribution in athymic mice bearing Human Tumor (LS174T) Xenografts 1 hour after injection in Heart (H); format: ADME, organism-based; conditions: in vivo
[26] = test system: Mus musculus; assay: Biodistribution in athymic mice bearing Human Tumor (KB) Xenografts 1 hour after injection in Lung (L); format: ADME, organism-based; conditions: in vivo
[27] = (§6) Ratio of biodistributions in Athymic mice bearing human Tumor (TE671) xenografts in Heart (H) and Blood (B); format: ADME, organism-based; conditions: mouse, read-out: Biodistribution ratio
[28] = test system: Mus musculus; assay: as §1; format: ADME, organism-based, Blood/Heart
[29] = test system: Mus musculus; assay: as §2; format: ADME, organism-based
[30] = test system: Mus musculus; assay: as §3; format: ADME, organism-based, Blood/Heart
[31] = test system: Mus musculus; assay: as §4; format: ADME, organism-based
[32] = test system: Mus musculus; assay: as §5; format: ADME, organism-based
[33] = test system: Mus musculus; assay: as §6; format: ADME, organism-based

Compound | Dose/g [1] | Dose/g [3] | Dose/g [4] | Dose/g [5] | Dose/g [6] | Biodistribution ratio [7] | Biodistribution ratio [8] | Biodistribution ratio [9] | Dose/g [10] | Dose/g [11] | Dose/g [13] | Dose/g [16] | Dose/g [17] | Dose/g [18] | Dose/g [19] | Dose/g [20] | Biodistribution ratio [21] | Biodistribution ratio [22] | Biodistribution ratio [24] | Dose/g [25] | other results
COC(=O)c1ccccc1-c1c2ccc(=N)cc-2oc2cc(N)ccc12.[125IH] | 0.91% | 0.6% | 1.67% | 0.91% | 0.59% | 0.7 | 0.8 | 1.2 | 1.74% | 4.6% | 1.74% | 1.1% | 0.36% | 1.44% | 2.56% | 0.36% | 1.6 | 0.7 | 3.1 | 0.6% | Kp [2]: 0.34; Kp [12]: 0.6; Kp [14]: 0.63; Kp [15]: 0.5; Kp [23]: 0.36; Dose/g [26]: 3.23%; Kp [27]: 0.5
Hexakis-(2-methoxyisobutylisonitrile)Technetium (99mTc-MIBI) | 0.5% | 6% | 0.65% | 0.5% | 0.52% | 12 | 4.5 | 0.24 | 0.13% | 0.17% | 0.13% | 1.1% | 1.22% | 2.74% | 8.13% | 1.22% | 0.43 | 12 | 0.9 | 6% | Biodistribution ratio [28]: 4; Biodistribution ratio [29]: 48; Biodistribution ratio [30]: 8.5; Biodistribution ratio [31]: 46; Biodistribution ratio [32]: 3.8; Dose/g [26]: 1.82%; Biodistribution ratio [33]: 46
